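All cell lines were grown in 96-well plates and treated with compound for 48 hours. GI50 marks 50% less growth.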 The source made the active and inactive calls. No stated cut-off is given here; in the data, active = GI50 up to about 1.1 µM and inactive = higher.
Experiments:
Experiment in all cases: NCI tumour cell line growth inhibition, 48 h
MDA-MB-231 = system: MDA-MB-231
NCI-H460 = system: NCI-H460
SK-OV-3 = system: SK-OV-3
TK-10 = system: TK-10
SK-MEL-28 = system: SK-MEL-28
HCT-116 = system: HCT-116
SW-620 = system: SW-620
OVCAR-3 = system: OVCAR-3
HOP-92 = system: HOP-92
EKVX = system: EKVX
HCC 2998 = system: HCC 2998
CCRF-CEM = system: CCRF-CEM
KM12 = system: KM12
UACC-257 = system: UACC-257
MCF7 = system: MCF7
NCI/ADR-RES = system: NCI/ADR-RES
786-0 = system: 786-0
K562 = system: K562
COLO 205 = system: COLO 205
NCI-H226 = system: NCI-H226
NCI-H23 = system: NCI-H23
NCI-H522 = system: NCI-H522
Hs-578T = system: Hs-578T
DU-145 = system: DU-145
U-251 = system: U-251
HCT-15 = system: HCT-15
HL-60 = system: HL-60
LOX IMVI = system: LOX IMVI
MDA-N = system: MDA-N
M14 = system: M14
HT-29 = system: HT-29
RXF 393 = system: RXF 393
RPMI-8226 = system: RPMI-8226
A498 = system: A498
SK-MEL-2 = system: SK-MEL-2
BT-549 = system: BT-549
SF-268 = system: SF-268
OVCAR-5 = system: OVCAR-5
MDA-MB-435 = system: MDA-MB-435
SF-539 = system: SF-539
UO-31 = system: UO-31
OVCAR-8 = system: OVCAR-8
CAKI-1 = system: CAKI-1
SNB-19 = system: SNB-19
IGROV-1 = system: IGROV-1
HOP-62 = system: HOP-62
SK-MEL-5 = system: SK-MEL-5
A549 = system: A549
SF-295 = system: SF-295
UACC-62 = system: UACC-62
PC-3 = system: PC-3
OVCAR-4 = system: OVCAR-4
T47D = system: T47D
ACHN = system: ACHN
SN12C = system: SN12C
SNB-75 = system: SNB-75
MOLT-4 = system: MOLT-4
SR = system: SR

COc1cc2c(/C=C3/C(=O)N(C)c4ccccc43)c(Cl)[nH]c2cc1C
GI50 (MDA-MB-231): 360 nM (active) | GI50 (NCI-H460): 295 nM (active) | GI50 (SK-OV-3): 184 nM (active) | GI50 (TK-10): 284 nM (active) | GI50 (SK-MEL-28): 8380 nM (inactive) | GI50 (HCT-116): 233 nM (active) | GI50 (SW-620): 330 nM (active) | GI50 (OVCAR-3): 116 nM (active) | GI50 (HOP-92): 1810 nM (inactive) | GI50 (EKVX): 641 nM (active) | GI50 (HCC 2998): 101 nM (active) | GI50 (CCRF-CEM): 303 nM (active) | GI50 (KM12): 132 nM (active) | GI50 (UACC-257): 169 nM (active) | GI50 (MCF7): 89.5 nM (active) | GI50 (NCI/ADR-RES): 170 nM (active) | GI50 (786-0): 300 nM (active) | GI50 (K562): 96.6 nM (active) | GI50 (COLO 205): 216 nM (active) | GI50 (NCI-H226): 449 nM (active) | GI50 (NCI-H23): 203 nM (active) | GI50 (NCI-H522): 183 nM (active) | GI50 (Hs-578T): 226 nM (active) | GI50 (DU-145): 246 nM (active) | GI50 (U-251): 117 nM (active) | GI50 (HCT-15): 130 nM | GI50 (HL-60): 69 nM (active) | GI50 (LOX IMVI): 300 nM (active) | GI50 (MDA-N): 35.2 nM (active) | GI50 (M14): 195 nM (active) | GI50 (HT-29): 328 nM (active) | GI50 (RXF 393): 746 nM (active) | GI50 (RPMI-8226): 249 nM (active) | GI50 (A498): 3190 nM (inactive) | GI50 (SK-MEL-2): 325 nM (active) | GI50 (BT-549): 321 nM (active) | GI50 (SF-268): 207 nM (active) | GI50 (OVCAR-5): 581 nM (active) | GI50 (MDA-MB-435): 27.7 nM (active) | GI50 (SF-539): 24.4 nM (active) | GI50 (UO-31): 2280 nM (inactive) | GI50 (OVCAR-8): 324 nM (active) | GI50 (CAKI-1): 509 nM (active) | GI50 (SNB-19): 253 nM (active) | GI50 (IGROV-1): 167 nM (active) | GI50 (HOP-62): 286 nM (active) | GI50 (SK-MEL-5): 185 nM (active) | GI50 (A549): 361 nM (active) | GI50 (SF-295): 96.4 nM (active) | GI50 (UACC-62): 179 nM (active) | GI50 (PC-3): 290 nM (active) | GI50 (OVCAR-4): 90.6 nM (active) | GI50 (T47D): 1460 nM (inactive) | GI50 (ACHN): 510 nM (active) | GI50 (SN12C): 471 nM (active) | GI50 (SNB-75): 321 nM (active) | GI50 (MOLT-4): 282 nM (active) | GI50 (SR): 274 nM (active)

From ChEMBL document CHEMBL1201862, “PubChem BioAssay data set” (2004)
